According to article PMC7738880, “Identification of novel CD44v6-binding peptides that block CD44v6 and deliver a pro-apoptotic peptide to tumors to inhibit tumor growth and metastasis in mice” (Theranostics, 2021):
Residues, ends and D or L forms follow the SMILES beside them.

Legend:
MDA-MB231 cells = experiment: Saturation cell binding assay, MDA-MB231; parameters: species or system human; details: biotin-labeled peptide 0-256 µM, 4 °C, 1 h
Description: Supplementary Information
Supplementary Materials and Methods
Saturation binding assays to determine the cellular binding affinities of peptides Cells (5 × 10^3 cells per well in a 96-well plate) were incubated with 1% bovine serum albumin (BSA) for 30 min and with different concentrations of biotin-labeled peptides (0, 2, 4, 8, 16, 32, 64, 128, and 256 µM) at 4 °C for 1 h. After washing, the cells were incubated with horseradish peroxidase-conjugated neutravidin (1:10,000 dilution; ThermoFisher Scientific, Waltham, MA) for 30 min at room temperature. Enzymatic activity was detected using a 3,3ʹ,5,5ʹ-tetramethylbenzidine substrate (ThermoFisher Scientific), and the reaction was stopped using 2 M sulfuric acid. The absorbance at 450 nm was measured in each well using a microplate reader (Tecan, Mannedorf, Switzerland). The KD values were then calculated using GraphPad Prism 6 software (GraphPad Inc., La Jolla, CA). […]
10 µM biotin-labeled CD44v6-binding peptides at 4 °C for 1 h. […]
Scientific) for 30 min at room temperature. […]

[1] = tested on: CD44v6-high cells (MDA-MB231, 4T1, Panc-1) versus CD44v6-low MCF7 cells; experiment: Immunofluorescence microscopy and flow cytometry of FITC-peptide cell binding; type: cell-based; details: FITC-labeled peptide 25 µM, 4 °C, 1 h
Description: Cells were seeded in each well of an 8-well chamber slide at a density of 1 × 10^5 cells per well, incubated overnight, and then treated with 1% BSA at room temperature for 1 h. Subsequently, the cells were incubated with FITC-conjugated peptides (25 µM) at 4 °C for 1 h, blocked with BSA, fixed, and incubated with an anti-human CD44v6 mouse monoclonal antibody (clone no. VFF-7, 1:100 dilution; Santa Cruz Biotechnology, Dallas, TX) or a rabbit anti-CD44v6 polyclonal antibody (1:100 dilution; Merck). The cells were then incubated with an Alexa Fluor 594-labeled goat anti-mouse IgG or goat anti-rabbit IgG secondary antibodies (Merck). After incubation, the cells were counterstained with 4ʹ,6-diamidino-2-phenylindole (DAPI, Sigma-Aldrich, St. Louis, MI), mounted with ProLong antifade reagent (Thermo Fischer Scientific), and observed under a confocal microscope (Zeiss, Jena, Germany).
Cells (1 × 10^5 cells) were harvested and suspended in culture medium containing 1% BSA for 1 h, followed by an incubation with FITC-labeled peptides (25 µM) at 4 °C for 1 h. After washing, the cells were analyzed using a FACSCalibur flow cytometer (BD, Franklin Lakes, NJ). […]

[2] = tested on: CD44v6-knockdown MDA-MB231 cells; experiment: Peptide binding to CD44v6-knockdown cells (flow cytometry); type: cell-based, human; details: FITC-labeled peptide 25 µM, MDA-MB231, siRNA knockdown 24 h
Description: Cells (1 × 10^5 cells) were harvested and suspended in culture medium containing 1% BSA for 1 h, followed by an incubation with FITC-labeled peptides (25 µM) at 4 °C for 1 h. After washing, the cells were analyzed using a FACSCalibur flow cytometer (BD, Franklin Lakes, NJ). For competition assays, cells were incubated with 5 µg/mL of an anti-human CD44v6 mouse monoclonal antibody (clone no. VFF-18, 1:100 dilution; Abcam, Cambridge, MA) and anti-human CD44 monoclonal antibody (clone no. 156-3C11, 1:100 dilution; ThermoFisher Scientific) for 1 h to compete with peptide binding, followed by an incubation with FITC-labeled peptides (10 µM) before analysis on a flow cytometer (BD). In another set of assays, cells were incubated with peptides (50 µM) for 1 h to compete with antibody binding, followed by an incubation with 5 µg/mL of the anti-human CD44v6 mouse monoclonal antibody for 1 h, The cells were then incubated with an Alexa Fluor 488-labeled goat anti-mouse IgG secondary antibody (Merck) before analysis on a flow cytometer (BD).
CD44v6 gene expression was knocked down using CD44v6 small interfering RNAs (siRNAs) as previously described. Two CD44v6-specific siRNAs (v6-1: 5ʹ-AGU ACA ACG GAA ATT-3ʹ and v6-2: 5ʹ-GGA UAU CGC CAAACA CCC ATT-3ʹ) were synthesized by Bioneer (Daejeon, Korea). Control siRNA (5ʹ-CUA CGC CAA UUU CGU (dTdT)-3ʹ) were purchased from Bioneer. […]

[3] = tested on: c-Met and Erk phosphorylation in 4T1 cells; experiment: Western blotting of HGF-induced c-Met and Erk phosphorylation, 4T1; type: cell-based, mouse; details: peptide pre-treatment 10 min, HGF 25 ng/mL 10 min
Description: To examine c-Met and Erk phosphorylation, MDA-MB231 cells were serum-starved for 24 h, pre-treated with CD44v6-binding peptides (20 µM) for 10 min, and incubated with 25 ng/mL HGF for 10 min. After the incubation, the cell lysates were subjected to Western blotting analyses using an anti-phospho-Met rabbit monoclonal antibody (clone no. D26; Cell Signaling Technology), anti-Met mouse monoclonal antibody (clone no. 25H2, 1:1000 dilution; Cell Signaling Technology), anti-phospho-Erk1/2 rabbit monoclonal antibody (clone no. 197G2; Cell Signaling Technology), and anti-ERK1 rabbit polyclonal antibody (1:1000 dilution; Santa Cruz Biotechnology). The labeled bands on immunoblots were detected using enhanced chemiluminescence reagents (ThermoFisher Scientific).
Supplementary Figure S3. NLN and NEW inhibit HGF-induced c-Met phosphorylation and cell migration and invasion in 4T1 breast tumor cells. (A) Western blotting analysis of c-Met and Erk phosphorylation in 4T1 cells pretreated or not with 5 μg/mL NLN and NEW for 10 min and treated with 25 ng/mL HGF for 10 min. (B) The quantification of c-Met and Erk […]
(1 picture or pasted object on this page, not shown here)

[4] = tested on: MDA-MB231 subcutaneous tumors; experiment: In vivo whole-body and ex vivo fluorescence imaging of tumor homing; parameters: species or system BALB/c nude mouse; details: Flamma 675 NIR dye-labeled peptide 1 mg/kg i.v.; for ex vivo accumulation in tumors versus organs: 6 h post-injection, n = 3/group; for in vivo fluorescence signals at tumor areas: imaging 1-6 h
Description: Mice for animal experiments were purchased from Orient Bio Inc. (Seongnam, Korea) and maintained in conformance with the Guidelines of the Institutional Animal Care and Use Committee of Kyungpook National University (permission no. 2014-1-121). A total of 1 × 10^6 MDA-MB231 cells were subcutaneously injected into the right flank of each 6-week-old female BALB/c nude mouse. When the tumor reached a volume of approximately 100 mm^3, the mouse was injected intravenously with Flamma 675 NIR fluorescence dye-labeled peptides (1 mg/kg body weight). Whole-body fluorescence imaging was performed under inhalational anesthesia using an IVIS imaging system (Perkin Elmer). After in vivo imaging, each mouse was euthanized, the tumor and control organs (liver, kidney, spleen, heart, and lung) were isolated, and ex vivo images were obtained using the IVIS imaging system.

SMILES	Kd (MDA-MB231 cells) [µM]	cellular binding, CD44v6-high versus CD44v6-low cells [1]	decrease of cellular binding to CD44v6-knockdown cells compared with wild-type cells [2]	HGF-induced phosphorylation of c-Met and Erk, 4T1 [3]	ex vivo accumulation in tumors versus organs [4]	in vivo fluorescence signals at tumor areas [4]
CC(C)C[C@H](NC(=O)[C@H](CCC(N)=O)NC(=O)[C@H](Cc1c[nH]c2ccccc12)NC(=O)[C@H](CCC(=O)O)NC(=O)[C@H](CC(N)=O)NC(=O)[C@@H](N)CS)C(=O)N[C@@H](CCCCN)C(=O)N[C@@H](CO)C(=O)N[C@@H](CS)C(=O)O [NEW] (H-CNEWQLKSC-OH; N-terminus and C-terminus assumed)	18 ± 6	bound selectively to CD44v6-high cells	6-7 fold	inhibited	higher levels of NLN and NEW accumulation in tumors than in control organs	higher than those associated with the control peptide until 4 h
CC[C@H](C)[C@H](NC(=O)[C@@H](NC(=O)[C@H](CC(N)=O)NC(=O)[C@H](CC(C)C)NC(=O)[C@H](CC(N)=O)NC(=O)[C@@H](N)CS)[C@@H](C)O)C(=O)N[C@@H](CC(=O)O)C(=O)N[C@H](C(=O)N[C@@H](CS)C(=O)O)[C@@H](C)O [NLN] (H-CNLNTIDTC-OH; N-terminus and C-terminus assumed)	12 ± 5	bound selectively to CD44v6-high cells	6-7 fold	inhibited	higher levels of NLN and NEW accumulation in tumors than in control organs	higher than those associated with the control peptide until 4 h
